# Results published in US12152048B2, “Nitroxoline prodrug and use thereof” (Jiangsu Yahong Meditech Co., Ltd., priority 2018, dated 2024).
# Legend:
# [1] = Determination of water solubility in phosphate buffer; type: physicochemical; settings: for solubility at 24 h: aqueous buffer, thermodynamic from solid, phosphate buffer pH 7.4, room temperature; for water solubility compared with nitroxoline: conclusion in words
# Source text: Experimental instruments: 96-well filter plate (MSHVN4510 or MSHVN4550, Millipore); electronic digital display vortex mixer (MS3 Digital, IKA); multi-purpose vacuum pump (circulating water type, SHB-111, Zhengzhou Greatwall Scientific Industrial and Trade Co., Ltd.); balance (XSLT05, Mettler-Toledo); comfortable mixer (Eppendorf AG 22331 Hamburg, Eppendorf); liquid chromatography (LC-3AD, Shimadzu); mass spectrometry (API4000, Applied Biosystems, USA); sample injector (Anylytics AG System, CTC). Nitroxoline was prepared according to the method disclosed in Journal of Heterocyclic Chemistry, 1971, vol. 8, p 821 by Wisdom Pharmaceutical Co., Ltd.
# Experimental process: 500 μL of phosphate buffer (pH=1.2, 4.5, 6.8 or 7.4) were added to a glass flask, to which 2 mg of compound powder were added. The flask was sealed with a cap and shaked on a mixer (VORTEX-GENIE2) at room temperature for 24 hours. The solution was subjected to vacuum filtration, and the filtrate was processed to determine the compound concentration by LC/MS/MS.
# [2] = Stability in mouse liver microsome; type: in vitro ADME; settings: 2 μM, 37° C., 30 minutes
# [3] = Stability in dog liver microsome; settings: 2 μM, 37° C., 30 minutes
# [4] = Stability in rat liver microsome; settings: 2 μM, 37° C., 30 minutes
# [5] = Stability in human liver microsome; settings: 2 μM, 37° C., 30 minutes
# Stability in dog plasma = type: in vitro ADME
# [6] = Stability in monkey plasma; type: in vitro ADME
# [7] = Stability in human plasma
# [8] = Stability in plasma, overall conclusion (species not stated); settings: conclusion in words
# Source text for Stability in rat plasma: Experimental instruments: thermostatic shaker (SHA-B, Guohua Electric Appliance Co., Ltd.); centrifuge (5810R, Eppendorf); mass spectrometry (AP4000, Applied Biosystems, USA); liquid chromatography (LC-30AD, Shimadzu); sample injector (CTC Analytics AG System, CTC).
# Test animals: plasma of human (batch number: BRH1343165), rat (batch number: RAT336728), mouse (batch number: MSE280000), dog (batch number: BGL99137) and monkey (batch number: PH-Monkey-20180821) are purchased from Shanghai Sixin Biological Technology Co., Ltd.
# Experimental process: the compound of the present invention was dissolved in an organic solvent to obtain a 1 mM working solution. 3 μL of the working solution were added to 597 μL of pre-incubated human or rat plasma and mixed well. 50 μL of the solution were immediately taken out as the 0 minute sample. The remaining sample was incubated at 37° C., and 50 μL of sample were taken out at 15, 30, 60 and 120 minutes respectively. All the samples taken out were immediately processed to precipitate protein, and centrifuged to obtain a supermate for the determination of the compound concentration by LC/MS/MS.
Structure (SMILES),solubility at 24 h [1] [µg/mL],Percentage of the compound remaining in mouse liver microsome ([2]; with coenzyme) [%],Percentage of the compound remaining in mouse liver microsome ([2]; without coenzyme) [%],Percentage of the compound remaining in dog liver microsome ([3]; with coenzyme) [%],Percentage of the compound remaining in dog liver microsome ([3]; without coenzyme) [%],Percentage of the compound remaining in rat liver microsome ([4]; with coenzyme) [%],Percentage of the compound remaining in rat liver microsome ([4]; without coenzyme) [%],Percentage of the compound remaining in human liver microsome ([5]; with coenzyme) [%],Percentage of the compound remaining in human liver microsome ([5]; without coenzyme) [%],also measured
"CC(=O)OCOc1ccc([N+](=O)[O-])c2cccnc12 [Compound 1, (5-nitroquinolin-8-yloxy)methyl acetate]",91.1,0.16,0.27,0.42,0.73,0.15,0.27,0.24,0.76,
"CCC(=O)OCOc1ccc([N+](=O)[O-])c2cccnc12 [Compound 2, (5-nitroquinolin-8-yloxy)methyl propionate]",72.7,0.10,0.02,0.13,0.18,0.52,0.45,0.27,0.16,
"CC(C)C(=O)OCOc1ccc([N+](=O)[O-])c2cccnc12 [Compound 3, (5-nitroquinolin-8-yloxy)methyl isobutyrate]",59.2,0.01,0.01,0.16,0.19,0.08,0.04,0.05,0.06,
"CC(C)(C)C(=O)OCOc1ccc([N+](=O)[O-])c2cccnc12 [Compound 4, (5-nitroquinolin-8-yloxy)methyl pivalate]",,,,,,,,,,"Percentage of the compound remaining in plasma (Stability in dog plasma; 0 minute): 100.0%; Percentage of the compound remaining in plasma (Stability in dog plasma; 37° C., 15 minutes): 80.0%; Percentage of the compound remaining in plasma (Stability in dog plasma; 37° C., 30 minutes): 56.3%; Percentage of the compound remaining in plasma (Stability in dog plasma; 37° C., 60 minutes): 32.7%; Percentage of the compound remaining in plasma (Stability in dog plasma; 37° C., 120 minutes): 18.2%; Percentage of the compound remaining in plasma ([6]; 0 minute): 100.0%; Percentage of the compound remaining in plasma ([6]; 37° C., 15 minutes): 4.8%; Percentage of the compound remaining in plasma ([6]; 37° C., 30 minutes): 0.3%; Percentage of the compound remaining in plasma ([6]; 37° C., 60 minutes): 0.0%; Percentage of the compound remaining in plasma ([6]; 37° C., 120 minutes): 0.0%; Percentage of the compound remaining in plasma (Stability in rat plasma; 0 minute): 100.0%; Percentage of the compound remaining in plasma (Stability in rat plasma; 37° C., 15 minutes): 0.0%; Percentage of the compound remaining in plasma (Stability in rat plasma; 37° C., 30 minutes): 0.0%; Percentage of the compound remaining in plasma (Stability in rat plasma; 37° C., 60 minutes): 0.0%; Percentage of the compound remaining in plasma (Stability in rat plasma; 37° C., 120 minutes): 0.0%; Percentage of the compound remaining in plasma ([7]; 0 minute): 100.0%; Percentage of the compound remaining in plasma ([7]; 37° C., 15 minutes): 80.9%; Percentage of the compound remaining in plasma ([7]; 37° C., 30 minutes): 70.7%; Percentage of the compound remaining in plasma ([7]; 37° C., 60 minutes): 54.7%; Percentage of the compound remaining in plasma ([7]; 37° C., 120 minutes): 31.4%"
"CC(C)(C)OC(=O)NCCCCCCC(=O)OCOc1ccc([N+](=O)[O-])c2cccnc12 [Compound 12, (5-nitroquinolin-8-yloxy)methyl 7-(tert-butoxycarbonylamino)heptanoate]",1.85,,,0.00,0.02,0.00,0.02,0.00,0.03,
"CCCOC(=O)N1CCC[C@H]1C(=O)OCOc1ccc([N+](=O)[O-])c2cccnc12 [Compound 18, (S)-2-(5-nitroquinolin-8-yloxy)methyl 1-propyl pyrrolidine-1,2-dicarboxylate]",132,0.26,0.00,0.14,1.40,0.06,4.63,2.65,5.06,water solubility compared with nitroxoline [1]: increased by several times
"CC(=O)OC(C)Oc1ccc([N+](=O)[O-])c2cccnc12 (stereo not shown) [Compound 47, 1-(5-nitroquinolin-8-yloxy)ethyl acetate]",285,0.04,0.04,0.01,0.02,0.01,0.02,0.03,0.02,
"CCC(=O)OC(C)Oc1ccc([N+](=O)[O-])c2cccnc12 (stereo not shown) [Compound 48, 1-(5-nitroquinolin-8-yloxy)ethyl propionate]",,0.03,0.05,0.03,0.02,0.06,0.03,0.08,0.10,
"CC(OC(=O)C(C)C)Oc1ccc([N+](=O)[O-])c2cccnc12 (stereo not shown) [Compound 49, 1-(5-nitroquinolin-8-yloxy)ethyl isobutyrate]",105,0.01,0.03,0.01,0.01,0.01,0.03,0.03,0.03,
"CC1CN(C(=O)OCOc2ccc([N+](=O)[O-])c3cccnc23)CCO1 (stereo not shown) [Compound 62, (5-nitroquinolin-8-yloxy)methyl 2-methylmorpholine-4-carboxylate]",,,,,,,,,,"Percentage of the compound remaining in plasma (Stability in rat plasma; 0 minute): 100.0%; Percentage of the compound remaining in plasma (Stability in rat plasma; 37° C., 15 minutes): 92.4%; Percentage of the compound remaining in plasma (Stability in rat plasma; 37° C., 30 minutes): 97.3%; Percentage of the compound remaining in plasma (Stability in rat plasma; 37° C., 60 minutes): 95.8%; Percentage of the compound remaining in plasma (Stability in rat plasma; 37° C., 120 minutes): 89.0%; Percentage of the compound remaining in plasma ([7]; 0 minute): 100.0%; Percentage of the compound remaining in plasma ([7]; 37° C., 15 minutes): 95.4%; Percentage of the compound remaining in plasma ([7]; 37° C., 30 minutes): 101.8%; Percentage of the compound remaining in plasma ([7]; 37° C., 60 minutes): 99.7%; Percentage of the compound remaining in plasma ([7]; 37° C., 120 minutes): 92.7%; stability in plasma [8]: high stability"
CC(=O)N(C)CC(=O)OCc1cccnc1N(C)C(=O)OCOc1ccc([N+](=O)[O-])c2cccnc12 [Compound 65],965,0.72,2.63,65.08,93.36,4.33,59.38,29.88,39.15,water solubility compared with nitroxoline [1]: increased by several times
CN(CC(=O)OCc1cccnc1N(C)C(=O)OCOc1ccc([N+](=O)[O-])c2cccnc12)C(=O)C(C)(C)C [Compound 66],540,0.02,4.32,13.05,67.43,0.06,12.10,9.77,74.45,water solubility compared with nitroxoline [1]: increased by several times
"CN(C)C(=O)Oc1ccc([N+](=O)[O-])c2cccnc12 [Compound 78, 5-nitroquinolin-8-yl dimethylcarbamate]",226,0.00,100.18,0.36,98.41,2.40,91.50,14.46,90.37,
